Here are results for 20 compounds from patent US11401271B2, “Fused heterocyclic compound, pyrazole-ring-containing fused heterocyclic compound, agricultural composition containing thereof, and method of using the composition” (SOUTH CHINA AGRICULTURAL UNIVERSITY, priority 2017, dated 2022).

Read-outs that look alike come from different tables or passages of the source.

Holding throughout (assay): whole plant or invertebrate
Common to all, as to format: in vivo

One data set deals with Aphis craccivora. To be noted: for mortality at 500 ppm: Aphis craccivora, 24 h, read-out: Aphis craccivora Mortality (%) 500 ppm; for Aphis craccivora Mortality (%) / Aphis craccivora Mortality (%) 500 ppm: 500 ppm, wingless adults; for Aphis craccivora Mortality (%): immersion 5 seconds, counted after 24 hours; for Aphis craccivora Mortality (%) 500 ppm: impregnation method, 24 hours. A digest of the protocol:
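Mortality scored 24 h after treatment as the reduction in live aphids versus a 0.05% Tween-80 control; three replicates, 23° C. Treatment was a 5 s immersion of wingless adults on bean sprouts in 500 ppm test solution containing 0.05% Tween-80, followed by air-drying.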

The test system of another data set is Solenopsis invicta. To be noted: water test tube poison-feeding; for mortality at 100 ppm: Solenopsis invicta; for Solenopsis invicta Mortality (%) 24 h / Solenopsis invicta Mortality (%) 72 h / Solenopsis invicta Mortality (%) 100 ppm 24 h / Solenopsis invicta Mortality (%) 100 ppm 72 h: 100 ppm. A digest of the protocol:
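Mortality (%) of Solenopsis invicta, computed against live counts in control tubes, was recorded 24 h and 72 h after treatment at 25 °C. Compound was offered by oral feeding in test tubes at 100 ppm, diluted from a 10 g/L DMSO stock into water with 5% honey and 0.05% Tween-80.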

Another data set deals with Plutella xylostella. To be noted: for mortality at 500 ppm: Plutella xylostella, read-out: Plutella xylostella Mortality (%) 500 ppm; for Plutella xylostella Mortality (%) / Plutella xylostella Mortality (%) 500 ppm: 500 ppm, 2nd-instar larvae, leaf immersion feeding. A digest of the protocol:
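Leaf immersion feeding test: 2nd-instar larvae (about 35 per vessel, 3 replicates) kept at 28° C. on 1.0 cm cabbage discs soaked 5 s in a 500 ppm solution with 0.05% Tween-80. Mortality after 24 h of exposure, calculated relative to live larvae in the Tween-80 control.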

Another data set deals with Spodoptera exigua. To be noted: for mortality at 500 ppm: Spodoptera exigua, 24 h, read-out: Spodoptera exigua Mortality (%) 500 ppm; for Spodoptera exigua Mortality (%) / Spodoptera exigua Mortality (%) 500 ppm: 500 ppm, 2nd-instar larvae, leaf immersion feeding; for Spodoptera exigua Mortality (%) 500 ppm: 24 hours. A digest of the protocol:
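Leaf immersion feeding: second-instar larvae (about 35 per vessel, triplicate) kept at 28° C on discs treated with 500 ppm test solution in 0.05% Tween-80. Mortality at 24 h, calculated relative to surviving larvae in the solvent control.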

Where [1] appears, read: 24 h, read-out: Solenopsis invicta Mortality (%) 100 ppm 24 h, 100 ppm, 24 h.
Setting [2] is: 72 h, read-out: Solenopsis invicta Mortality (%) 100 ppm 72 h, 100 ppm, 72 h.

For the compound `C=CC1(CCl)Nc2c([S+]([O-])CC)c(C#N)nn2-c2c(Cl)cc(C(F)(F)F)cc21` (stereo not shown) [Compound C17], the mortality at 500 ppm in the data set with Aphis craccivora came out at 100%; in the data set on Plutella xylostella, 88%; with Spodoptera exigua it was 89%. Besides, the mortality at 100 ppm worked out at 15% in the data set on Solenopsis invicta (setting [1]) and 68% in the data set with Solenopsis invicta (setting [2]).
With `COC(=O)CC1(C(=O)OC)Nc2c(C(F)(F)F)c(C#N)nn2-c2cc(C(F)(F)F)cc(Cl)c21` (stereo not shown) [c-2], the “Aphis craccivora Mortality (%)” value in the data set on Aphis craccivora was determined as 100%. In the data set with Solenopsis invicta (24 h), the “Solenopsis invicta Mortality (%) 24 h” value stood at 20%. Moreover, the “Solenopsis invicta Mortality (%) 72 h” value in the data set on Solenopsis invicta (72 h) came out at 97%. Besides, the “Plutella xylostella Mortality (%)” value with Plutella xylostella was determined as 95%. For the same compound, the “Spodoptera exigua Mortality (%)” value in the data set on Spodoptera exigua is reported as 90%.
The corresponding values for `CC(=O)C1(CC(=O)C(F)(F)F)Nc2c([S+]([O-])C(F)(F)F)c(C#N)nn2-c2cc(C(F)(F)F)cc(Cl)c21` (stereo not shown) [c-47] are 100%, 35%, 99%, 90% and 89%.
On to `N#Cc1nn2c(c1[S+]([O-])C(F)(F)F)NC(C(=O)C(F)(F)F)c1cc(C(F)(F)F)cnc1-2` (stereo not shown) [a-71], for which the “Aphis craccivora Mortality (%) 500 ppm” value in the data set on Aphis craccivora is listed as 100%. In addition, the “Solenopsis invicta Mortality (%) 100 ppm 24 h” value with Solenopsis invicta (24 h) amounted to 24%. In addition, the “Solenopsis invicta Mortality (%) 100 ppm 72 h” value in the data set on Solenopsis invicta (72 h) amounted to 100%. In the data set on Plutella xylostella, the “Plutella xylostella Mortality (%) 500 ppm” value was 100%. For the same compound, the “Spodoptera exigua Mortality (%) 500 ppm” value in the data set on Spodoptera exigua stood at 99%.
Regarding `COC(=O)C1(CC#N)Nc2c([S+](C)[O-])c(C(C)=O)nn2-c2c(Cl)cc(C(F)(F)F)cc21` (stereo not shown) [Compound C44], the mortality at 500 ppm turned out to be 100% in the data set on Aphis craccivora, 90% with Plutella xylostella and 100% in the data set on Spodoptera exigua. Also, the mortality at 100 ppm came to 36% in the data set with Solenopsis invicta (setting [1]) and 90% in the data set with Solenopsis invicta (setting [2]).
With `C=CC1(CC#N)Nc2c([S+](C)[O-])c(C(C)=O)nn2-c2c(Cl)cc(C(F)(F)F)cc21` (stereo not shown) [Compound C23], the mortality at 500 ppm in the data set with Aphis craccivora was 95%; in the data set on Plutella xylostella it was 86%; in the data set with Spodoptera exigua it was 88%. The mortality at 100 ppm was determined as 18% in the data set on Solenopsis invicta (setting [1]) and 80% in the data set with Solenopsis invicta (setting [2]).
As to `Cc1ccc(S(=O)(=O)Nc2c(C#N)nn3c2NC(C)(C)c2ccccc2-3)cc1` [Compound A20], the mortality at 500 ppm in the data set with Aphis craccivora is 100%; in the data set with Plutella xylostella, 100%; with Spodoptera exigua it was 90%. The mortality at 100 ppm in the data set on Solenopsis invicta (setting [1]) turned out to be 26%; in the data set with Solenopsis invicta (setting [2]) it was 93%.
As for `N#Cc1nn2c(c1[S+]([O-])C(F)(F)F)NC(Cl)(CC(F)(F)F)c1c(Cl)cncc1-2` (stereo not shown) [b-48], the “Aphis craccivora Mortality (%)” value with Aphis craccivora was found to be 100%. The “Solenopsis invicta Mortality (%) 24 h” value in the data set on Solenopsis invicta (24 h) worked out at 15%. Moreover, in the data set on Solenopsis invicta (72 h), the “Solenopsis invicta Mortality (%) 72 h” value amounted to 90%. Moreover, the “Plutella xylostella Mortality (%)” value in the data set on Plutella xylostella came to 100%. In addition, the “Spodoptera exigua Mortality (%)” value with Spodoptera exigua was 89%.
On to `COC(=O)C1(CC(=O)OCC(F)F)Nc2c([S+]([O-])C(F)(F)F)c(C#N)nn2-c2c(C(F)(F)F)ccc(Cl)c21` (stereo not shown) [e-4], for which the “Aphis craccivora Mortality (%)” value with Aphis craccivora stood at 100%. Also, in the data set with Solenopsis invicta (24 h), the “Solenopsis invicta Mortality (%) 24 h” value amounted to 32%. In the data set on Solenopsis invicta (72 h), the “Solenopsis invicta Mortality (%) 72 h” value came out at 100%. Besides, the “Plutella xylostella Mortality (%)” value with Plutella xylostella is 100%. Also, the “Spodoptera exigua Mortality (%)” value in the data set on Spodoptera exigua was determined as 100%.
For `N#Cc1nn2c(c1[S+]([O-])C(F)(F)F)NC(CC(F)(F)F)(C(F)(F)F)c1cc(C(F)(F)F)cc(Cl)c1-2` (stereo not drawn) [d-69], the “Aphis craccivora Mortality (%)” value in the data set on Aphis craccivora came to 100%. The “Solenopsis invicta Mortality (%) 24 h” value in the data set on Solenopsis invicta (24 h) is reported as 44%. The “Solenopsis invicta Mortality (%) 72 h” value in the data set on Solenopsis invicta (72 h) was determined as 100%. Moreover, the “Plutella xylostella Mortality (%)” value with Plutella xylostella was found to be 90%. The “Spodoptera exigua Mortality (%)” value with Spodoptera exigua stood at 86%.
Take `N#Cc1nn2c(c1[S+]([O-])C(F)(F)F)NC(CC(=O)C(F)(F)F)c1c(Cl)cncc1-2` (stereo not shown) [b-70]: in the data set on Aphis craccivora, the “Aphis craccivora Mortality (%)” value was 100%. Further, the “Solenopsis invicta Mortality (%) 24 h” value in the data set with Solenopsis invicta (24 h) worked out at 44%. The “Solenopsis invicta Mortality (%) 72 h” value in the data set on Solenopsis invicta (72 h) stood at 100%. Moreover, in the data set on Plutella xylostella, the “Plutella xylostella Mortality (%)” value is reported as 100%. Also, the “Spodoptera exigua Mortality (%)” value in the data set with Spodoptera exigua is 95%.
Take `COC(=O)CC1(C(=O)OC)Nc2c(Cl)c(C#N)nn2-c2ncc(C(F)(F)F)cc21` (stereo not shown) [a-133]: the “Aphis craccivora Mortality (%) 500 ppm” value in the data set with Aphis craccivora was 100%. For the same compound, the “Solenopsis invicta Mortality (%) 100 ppm 24 h” value with Solenopsis invicta (24 h) is on record as 24%. Moreover, the “Solenopsis invicta Mortality (%) 100 ppm 72 h” value with Solenopsis invicta (72 h) worked out at 100%. Also, the “Plutella xylostella Mortality (%) 500 ppm” value in the data set on Plutella xylostella is reported as 100%. Besides, the “Spodoptera exigua Mortality (%) 500 ppm” value with Spodoptera exigua came out at 100%.
As for `CCOC(=O)CC1(C(=O)OC)Nc2c([S+]([O-])C(F)(F)F)c(C#N)nn2-c2c(C(F)(F)F)ccc(Cl)c21` (stereo not shown) [e-2], the “Aphis craccivora Mortality (%)” value with Aphis craccivora came out at 100%. Besides, in the data set with Solenopsis invicta (24 h), the “Solenopsis invicta Mortality (%) 24 h” value is reported as 25%. In the data set with Solenopsis invicta (72 h), the “Solenopsis invicta Mortality (%) 72 h” value amounted to 100%. Also, in the data set on Plutella xylostella, the “Plutella xylostella Mortality (%)” value amounted to 100%. The “Spodoptera exigua Mortality (%)” value in the data set with Spodoptera exigua is recorded as 100%.
For `CNC(=O)CC1Nc2c(OC(F)(F)F)c(C#N)nn2-c2c(Cl)cc(C(F)(F)F)cc21` (stereo not drawn) [d-133], the “Aphis craccivora Mortality (%)” value with Aphis craccivora turned out to be 100%. For the same compound, the “Solenopsis invicta Mortality (%) 24 h” value with Solenopsis invicta (24 h) is on record as 21%. For the same compound, the “Solenopsis invicta Mortality (%) 72 h” value in the data set on Solenopsis invicta (72 h) came out at 95%. Further, the “Plutella xylostella Mortality (%)” value with Plutella xylostella came out at 70%. Moreover, the “Spodoptera exigua Mortality (%)” value with Spodoptera exigua amounted to 86%.
The corresponding values for `N#Cc1nn2c(c1OC(F)(F)F)NC(C#N)c1c(Cl)cncc1-2` (stereo not shown) [b-118] are 100%, 14%, 99%, 99% and 91%.
Consider `CCNc1cc2n(n1)-c1cnccc1C(F)(CC(F)(F)F)N2` (stereo not shown) [Compound A37], for which the mortality at 500 ppm in the data set on Aphis craccivora, with Plutella xylostella and in the data set with Spodoptera exigua was 100% each time. The mortality at 100 ppm in the data set with Solenopsis invicta (setting [1]) was determined as 20%; in the data set on Solenopsis invicta (setting [2]), 100%.
For the compound “9-chloro-2-cyano-3-cyclohexanesulfinyl-5-(2′2-dimethoxy)-7-trifluoromethyl-4,5-dihydropyrazole[1,5-α]quinazoline-5-methyl formate [d-12]”, in the data set on Aphis craccivora, the “Aphis craccivora Mortality (%)” value is given as 100%. The “Solenopsis invicta Mortality (%) 24 h” value in the data set with Solenopsis invicta (24 h) was 20%. The “Solenopsis invicta Mortality (%) 72 h” value in the data set on Solenopsis invicta (72 h) is listed as 100%. For the same compound, in the data set on Plutella xylostella, the “Plutella xylostella Mortality (%)” value stood at 86%. Also, the “Spodoptera exigua Mortality (%)” value with Spodoptera exigua is 96%.
Regarding `CCSc1c(C#N)nn2c1NC(C)(C)c1ccccc1-2` [Compound A9], the mortality at 500 ppm in the data set with Aphis craccivora, in the data set on Plutella xylostella and in the data set on Spodoptera exigua was 100% in each case. The mortality at 100 ppm in the data set with Solenopsis invicta (setting [1]) is 24%; with Solenopsis invicta (setting [2]), 100%.
With `CC=CC1Nc2c([S+]([O-])C(F)(F)F)c(C(F)(F)F)nn2-c2ncc(C(F)(F)F)cc21` (stereo not shown) [a-109], in the data set on Aphis craccivora, the “Aphis craccivora Mortality (%) 500 ppm” value turned out to be 100%. Besides, the “Solenopsis invicta Mortality (%) 100 ppm 24 h” value in the data set on Solenopsis invicta (24 h) was determined as 20%. Further, the “Solenopsis invicta Mortality (%) 100 ppm 72 h” value with Solenopsis invicta (72 h) is 90%. Further, the “Plutella xylostella Mortality (%) 500 ppm” value with Plutella xylostella came out at 95%. The “Spodoptera exigua Mortality (%) 500 ppm” value in the data set on Spodoptera exigua was found to be 89%.
As to `CC(C)C1Nc2c(OC(F)(F)F)c(C#N)nn2-c2c(Cl)cc(C(F)(F)F)cc21` (stereo not drawn) [d-141], the “Aphis craccivora Mortality (%)” value in the data set with Aphis craccivora was 100%. For the same compound, the “Solenopsis invicta Mortality (%) 24 h” value in the data set on Solenopsis invicta (24 h) amounted to 11%. Besides, in the data set with Solenopsis invicta (72 h), the “Solenopsis invicta Mortality (%) 72 h” value was determined as 91%. The “Plutella xylostella Mortality (%)” value with Plutella xylostella is 90%. In addition, the “Spodoptera exigua Mortality (%)” value with Spodoptera exigua is on record as 95%.

In general, mortality refers to the percentage killed.
